pEC50, pIC50: −log10 of the molar value.
Assays:
5-HT2A [1] = target: T1, 5-HT2A (Homo sapiens, UniProt P28223); assay: Serotonin 5-HT2A in vitro radioligand binding competition assay ([3H]-DOI); parameters: purchased Epics Therapeutics S. A. (Belgium) FAST-0505B; conditions: [3H]-DOI competition, membrane extracts
Procedure: Serotonin 5-HT2A In Vitro Radioligand Binding Competition Assay. The 5-HT2A radioligand binding competition assay was performed at Epics Therapeutics S. A. (Belgium, FAST-0505B) using conventional methods. Briefly, competition binding was performed in duplicate in the wells of a 96 well plate (Master Block, Greiner, 786201) containing binding buffer (optimized for each receptor), membrane extracts (amount of protein/well optimized for each receptor), radiotracer [^3H]-DOI (final concentration optimized for each receptor) and test compound. Nonspecific binding was determined by co-incubation with 200-fold excess of cold competitor. The samples were incubated in a final volume of 0.1 ml at a temperature and for a duration optimized for each receptor and then filtered over filter plates. Filters were washed six times with 0.5 ml of ice-cold washing buffer (optimized for each receptor) and 50 μl of Microscint 20 (Packard) were added in each well. The plates were incubated 15 min on an orbital shaker and then counted with a TopCount™ for 1 min/well.

5-HT2A [2] = target: T1, 5-HT2A; assay: Serotonin 5-HT2A in vitro cellular IPOne agonism assay; assay type: cell-based; parameters: host or cells: CHO-K1; conditions: CHO-K1 cells, IPOne HTRF, agonist mode
Procedure: Serotonin 5-HT2A In Vitro Cellular IPOne Agonism Assay. The 5-HT2A IPOne HTRF assay was performed at Epics Therapeutics S.A. (Belgium, FAST-0505I) using conventional methods. Briefly, CHO-K1 cells expressing human recombinant 5-HT2A receptor grown to mid-log phase in culture media without antibiotics were detached with PBS-EDTA, centrifuged, and resuspended in medium without antibiotics buffer. 20,000 cells are distributed in a 96 well plate and incubated overnight at 37° C. with 5% Co2.
For agonist testing, the medium was removed and […] of assay buffer plus 20 μl of test compound or reference agonist were added in each well. The plate was incubated for 60 min. at 37° C. with 5% CO2.
(§1) After addition of the lysis buffer containing IP1-d2 and anti-IP1 cryptate detection reagents, plates were incubated 1-hour at room temperature, and fluorescence ratios were measured according to the manufacturer specification, with the HTRF kit.

5-HT2A [3] = target: T1, 5-HT2A; assay: Serotonin 5-HT2A in vitro cellular IPOne antagonism assay; assay type: cell-based; parameters: host or cells: CHO-K1; conditions: CHO-K1 cells, IPOne HTRF, reference agonist a-Me-5HT
Procedure: Serotonin 5-HT2A and 5-HT2C In Vitro Cellular IPOne Antagonism Assay. The 5-HT2A and 5-HT2C IPOne HTRF assay was performed at Epics Therapeutics S.A. (Belgium, FAST-0505I) in antagonism mode using conventional methods. Briefly, CHO-K1 cells expressing human recombinant 5-HT2A or 5-HT2C receptor grown to mid-log phase in culture media without antibiotics were detached with PBS-EDTA, centrifuged, and resuspended in medium without antibiotics buffer. 20,000 cells were distributed in a 96 well plate and incubated overnight at 37° C. with 5% C02.
For antagonist testing, a reference agonist a-Me-5HT was added and fluorescence signal monitored for several minutes, followed by addition of 20 μlof assay buffer plus 20 μl of test compound or reference antagonist ketanserin, in each well. The plate was incubated for 60 min. at 37° C. with 5% CO2.
as §1

T1 sequence (P28223 whole entry): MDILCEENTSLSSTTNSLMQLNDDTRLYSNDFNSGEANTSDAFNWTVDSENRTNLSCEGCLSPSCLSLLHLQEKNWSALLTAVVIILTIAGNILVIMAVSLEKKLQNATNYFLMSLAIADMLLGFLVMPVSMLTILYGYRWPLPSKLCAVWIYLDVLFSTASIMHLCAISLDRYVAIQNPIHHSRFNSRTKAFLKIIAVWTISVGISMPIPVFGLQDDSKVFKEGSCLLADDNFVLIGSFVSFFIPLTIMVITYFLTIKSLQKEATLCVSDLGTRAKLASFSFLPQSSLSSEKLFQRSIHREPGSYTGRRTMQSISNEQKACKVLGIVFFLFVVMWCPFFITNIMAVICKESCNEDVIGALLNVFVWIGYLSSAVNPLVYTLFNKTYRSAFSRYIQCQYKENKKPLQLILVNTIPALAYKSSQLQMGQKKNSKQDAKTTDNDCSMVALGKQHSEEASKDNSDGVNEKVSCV

SMILES	pIC50 (5-HT2A [1])	pEC50 (5-HT2A [2])	pIC50 (5-HT2A [3])
CC(C)N1CCC(n2ccc3c(F)c(F)ccc32)C1 (centres unmarked) [Compound 19, 4,5-difluoro-1-(1-isopropylpyrrolidin-3-yl)-1H-indole]	5.00 to 6.00	< 5.00	–
Cc1cn(C2CCN(C3COC3)C2)c2ccc(F)cc12 (centres unmarked) [Compound 20, 5-fluoro-3-methyl-1-(1-(oxetan-3-yl)pyrrolidin-3-yl)-1H-indole]	< 5.00	< 5.00	–
Fc1ccc2c(ccn2C2CCN(C3COC3)C2)c1F (centres unmarked) [Compound 21, 4,5-difluoro-1-(1-(oxetan-3-yl)pyrrolidin-3-yl)-1H-indole]	< 5.00	< 5.00	–
COCCN1CCC(n2cc(C)c3cc(F)ccc32)C1 (centres unmarked) [Compound 22, 5-Fluoro-1-(1-(2-methoxyethyl)pyrrolidin-3-yl)-3-methyl-1H-indole]	5.00 to 6.00	< 5.00	–
COCCN1CCC(n2ccc3c(F)c(F)ccc32)C1 (centres unmarked) [Compound 23, 4,5-Difluoro-1-(1-(2-methoxyethyl)pyrrolidin-3-yl)-1H-indole]	5.00 to 6.00	< 5.00	5.00 to 6.00
Clc1ccc2c(ccn2C2CNC2)c1 [Compound 24, 1-(azetidin-3-yl)-5-chloro-1H-indole]	5.00 to 6.00	< 5.00	6.00 to 7.00
N#Cc1ccc2c(ccn2C2CNC2)c1 [Compound 25, 1-(azetidin-3-yl)-1H-indole-5-carbonitrile]	< 5.00	< 5.00	< 5.00
Fc1cccc2ccn(C3CNC3)c12 [Compound 26, 1-(azetidin-3-yl)-7-fluoro-1H-indole]	5.00 to 6.00	5.00 to 6.00	5.00 to 6.00
Fc1ccc2c(ccn2C2CNC2)c1 [Compound 27, 1-(azetidin-3-yl)-5-fluoro-1H-indole]	6.00 to 7.00	< 5.00	6.00 to 7.00
Fc1ccc2ccn(C3CNC3)c2c1 [Compound 28, 1-(azetidin-3-yl)-6-fluoro-1H-indole]	6.00 to 7.00	< 5.00	6.00 to 7.00
COc1ccc2c(ccn2C2CNC2)c1 [Compound 29, 1-(azetidin-3-yl)-5-methoxy-1H-indole]	< 5.00	< 5.00	< 5.00
CN1CC(n2ccc3cc(F)ccc32)C1 [Compound 30, 5-fluoro-1-(1-methylazetidin-3-yl)-1H-indole]	6.00 to 7.00	< 5.00	6.00 to 7.00
COc1ccc2c(ccn2C2CN(C)C2)c1 [Compound 31, 5-methoxy-1-(1-methylazetidin-3-yl)-1H-indole]	< 5.00	< 5.00	< 5.00
CN1CC(n2ccc3c(F)cccc32)C1 [Compound 32, 4-fluoro-1-(1-methylazetidin-3-yl)-1H-indole]	6.00 to 7.00	< 5.00	6.00 to 7.00
CN1CC(n2ccc3ccc(F)cc32)C1 [Compound 33, 6-fluoro-1-(1-methylazetidin-3-yl)-1H-indole]	6.00 to 7.00	< 5.00	6.00 to 7.00
CN1CC(n2ccc3cccc(F)c32)C1 [Compound 34, 7-fluoro-1-(1-methylazetidin-3-yl)-1H-indole]	6.00 to 7.00	< 5.00	5.00 to 6.00
Cc1ccc2c(ccn2C2CN(C)C2)c1 [Compound 35, 5-methyl-1-(1-methylazetidin-3-yl)-1H-indole]	5.00 to 6.00	< 5.00	5.00 to 6.00
CN1CC(n2ccc3cc(Cl)ccc32)C1 [Compound 36, 5-chloro-1-(1-methylazetidin-3-yl)-1H-indole]	< 5.00	< 5.00	< 5.00
CN1CC(n2ccc3cc(C#N)ccc32)C1 [Compound 37, 1-(1-methylazetidin-3-yl)-1H-indole-5-carbonitrile]	< 5.00	< 5.00	< 5.00

— patent publication US20250101001A1 (priority 2021, published 2025)
